Assay results as given in ChEMBL document CHEMBL5113453, “Design, synthesis, and biological evaluation of a new series of pyrazole derivatives: Discovery of potent and selective JNK3 kinase inhibitors” (Bioorg Med Chem, 2022).

Tests used:
SF-539 = test: Antiproliferative activity against human SF-539 cells measured after 48 hrs by SRB assay; type: functional, cell-based; details: for IC50: SF-539, 48 h; for TGI: SF-539, time 48 hrs
T47D = test: Antiproliferative activity against human T47D cells measured after 48 hrs by SRB assay; type: functional, cell-based; details: for IC50: 48 h; for TGI: time 48 hrs
NCI-H226 = test: Antiproliferative activity against human NCI-H226 cells measured after 48 hrs by SRB assay; type: functional, cell-based; details: for IC50: NCI-H226, 48 h; for TGI: NCI-H226, time 48 hrs
HCC 2998 = test: Antiproliferative activity against human HCC 2998 cells measured after 48 hrs by SRB assay; type: functional, cell-based; details: for IC50: HCC 2998, 48 h; for TGI: HCC 2998, time 48 hrs
Malme-3M = test: Antiproliferative activity against human Malme-3M cells measured after 48 hrs by SRB assay; type: functional, cell-based; details: for IC50: 48 h; for TGI: time 48 hrs
IGROV-1 = test: Antiproliferative activity against human IGROV-1 cells measured after 48 hrs by SRB assay; type: functional, cell-based; details: for IC50: IGROV-1, 48 h; for TGI: IGROV-1, time 48 hrs
SR = test: Antiproliferative activity against human SR cells measured after 48 hrs by SRB assay; type: functional, cell-based; details: for IC50: 48 h; for TGI: time 48 hrs
NCI-H23 = test: Antiproliferative activity against human NCI-H23 cells measured after 48 hrs by SRB assay; type: functional, cell-based; details: for IC50: NCI-H23, 48 h; for TGI: NCI-H23, time 48 hrs
SNB-19 = test: Antiproliferative activity against human SNB-19 cells measured after 48 hrs by SRB assay; type: functional, cell-based; details: for IC50: SNB-19, 48 h; for TGI: SNB-19, time 48 hrs
HT-29 = test: Antiproliferative activity against human HT-29 cells measured after 48 hrs by SRB assay; type: functional, cell-based; details: for IC50: HT-29, 48 h; for TGI: HT-29, time 48 hrs
U-251 = test: Antiproliferative activity against human U-251 cells measured after 48 hrs by SRB assay; type: functional, cell-based; details: for IC50: U-251, 48 h; for TGI: U-251, time 48 hrs
HOP-62 = test: Antiproliferative activity against human HOP-62 cells measured after 48 hrs by SRB assay; type: functional, cell-based; details: for IC50: HOP-62, 48 h; for TGI: HOP-62, time 48 hrs
SN12C = test: Antiproliferative activity against human SN12C cells measured after 48 hrs by SRB assay; type: functional, cell-based; details: for IC50: 48 h; for TGI: time 48 hrs
BT-549 = test: Antiproliferative activity against human BT-549 cells measured after 48 hrs by SRB assay; type: functional, cell-based; details: for IC50: BT-549, 48 h; for TGI: BT-549, time 48 hrs
EKVX = test: Antiproliferative activity against human EKVX cells measured after 48 hrs by SRB assay; type: functional, cell-based; details: for IC50: 48 h; for TGI: time 48 hrs
786-0 = test: Antiproliferative activity against human 786-0 cells measured after 48 hrs by SRB assay; type: functional, cell-based; details: for IC50: 786-0, 48 h; for TGI: 786-0, time 48 hrs
NCI-H522 = test: Antiproliferative activity against human NCI-H522 cells measured after 48 hrs by SRB assay; type: functional, cell-based; details: for IC50: NCI-H522, 48 h; for TGI: NCI-H522, time 48 hrs
HCT-15 = test: Antiproliferative activity against human HCT-15 cells measured after 48 hrs by SRB assay; type: functional, cell-based; details: for IC50: HCT-15, 48 h; for TGI: HCT-15, time 48 hrs
Hs-578T = test: Antiproliferative activity against human Hs-578T cells measured after 48 hrs by SRB assay; type: functional, cell-based; details: for IC50: 48 h; for TGI: time 48 hrs
UO-31 = test: Antiproliferative activity against human UO-31 cells measured after 48 hrs by SRB assay; type: functional, cell-based; details: for IC50: UO-31, 48 h; for TGI: UO-31, time 48 hrs
DU-145 = test: Antiproliferative activity against human DU-145 cells measured after 48 hrs by SRB assay; type: functional, cell-based; details: for IC50: DU-145, 48 h; for TGI: DU-145, time 48 hrs
OVCAR-8 = test: Antiproliferative activity against human OVCAR-8 cells measured after 48 hrs by SRB assay; type: functional, cell-based; details: for IC50: OVCAR-8, 48 h; for TGI: OVCAR-8, time 48 hrs
MCF7 = test: Antiproliferative activity against human MCF7 cells measured after 48 hrs by SRB assay; type: functional, cell-based; details: for IC50: MCF7, 48 h; for TGI: MCF7, time 48 hrs
RPMI-8226 [1] = test: Induction of apoptosis in human RPMI-8226 cells assessed as fold increase in caspase-3/7 activity at 6.12 uM; type: functional
RPMI-8226 [2] = test: Induction of apoptosis in human RPMI-8226 cells assessed as fold increase in caspase-3/7 activity at 0.73 uM; type: functional
RPMI-8226 [3] = test: Induction of necrosis in human RPMI-8226 cells assessed as LDH release at 6.12 uM; type: functional
RPMI-8226 [4] = test: Induction of necrosis in human RPMI-8226 cells assessed as LDH release at 0.73 uM; type: functional
HepG2 = test: Antiproliferative activity against human HepG2 cells measured by MTT assay; type: functional, cell-based
Hep 3B2 = test: Antiproliferative activity against human Hep3B cells measured by MTT assay; type: functional, cell-based

## COc1cccc(-c2nn(-c3ccccc3)cc2-c2ccnc(NCCCNC(=O)Nc3ccc(F)cc3)c2)c1
SF-539
  IC50: 6.34 µM
  TGI: 13.4 µM
T47D
  IC50: 7.95 µM
  TGI: > 37 µM
NCI-H226
  IC50: 10.8 µM
  TGI: > 37 µM
HCC 2998
  IC50: 7.38 µM
  TGI: 20 µM
Malme-3M
  IC50: 5.45 µM
  TGI: 10.6 µM
IGROV-1
  IC50: 9.34 µM
  TGI: > 37 µM
SR
  IC50: 7.7 µM
  TGI: > 37 µM
NCI-H23
  IC50: 10.1 µM
  TGI: > 37 µM
SNB-19
  IC50: 12.1 µM
  TGI: > 37 µM
HT-29
  IC50: 7.17 µM
  TGI: 18.2 µM
U-251
  IC50: 9.84 µM
  TGI: > 37 µM
HOP-62
  IC50: 14.7 µM
  TGI: > 37 µM
SN12C
  IC50: 9.83 µM
  TGI: > 37 µM
BT-549
  IC50: 6.24 µM
  TGI: 20.3 µM
EKVX
  IC50: 9.63 µM
  TGI: > 37 µM
786-0
  IC50: 9.34 µM
  TGI: > 37 µM
NCI-H522
  IC50: 5.07 µM
  TGI: 12 µM
HCT-15
  IC50: 7.64 µM
  TGI: > 37 µM
Hs-578T
  IC50: 6.24 µM
  TGI: 17.9 µM
UO-31
  IC50: 5.1 µM
  TGI: > 37 µM
DU-145
  IC50: 14 µM
  TGI: > 37 µM
OVCAR-8
  IC50: 10.6 µM
  TGI: > 37 µM
MCF7
  IC50: 7.17 µM
  TGI: 18 µM

## O=C(NCCCNc1cc(-c2cn(-c3ccccc3)nc2-c2cccc(O)c2)ccn1)Nc1cccc(C(F)(F)F)c1
SF-539
  IC50: 2.78 µM
  TGI: 7.18 µM
T47D
  IC50: 3.42 µM
  TGI: 16.7 µM
NCI-H226
  IC50: 4.88 µM
  TGI: 11.5 µM
RPMI-8226 [1]
  fold change (FC): 2.83
RPMI-8226 [2]
  fold change (FC): 1.96
HCC 2998
  IC50: 1.26 µM
  TGI: 4.34 µM
RPMI-8226 [3]
  Activity: 34.5%
Malme-3M
  IC50: 1.54 µM
  TGI: 6.08 µM
RPMI-8226 [4]
  Activity: 6.7%
IGROV-1
  IC50: 2.83 µM
  TGI: 7.98 µM
SR
  IC50: 1.65 µM
  TGI: 12.8 µM
NCI-H23
  IC50: 4.34 µM
  TGI: 9.34 µM
SNB-19
  IC50: 3.99 µM
  TGI: 8.97 µM
HT-29
  IC50: 1.51 µM
  TGI: 6.19 µM
U-251
  IC50: 2.57 µM
  TGI: 7.45 µM
HOP-62
  IC50: 4.09 µM
  TGI: 9.59 µM
SN12C
  IC50: 3.65 µM
  TGI: 7.91 µM
HepG2
  IC50: 6.42 µM
Hep 3B2
  IC50: 4.9 µM
BT-549
  IC50: 3.26 µM
  TGI: 7.63 µM
EKVX
  IC50: 3.5 µM
  TGI: 8.45 µM
786-0
  IC50: 1.07 µM
  TGI: 3.71 µM
NCI-H522
  IC50: 5.12 µM
  TGI: 11 µM
HCT-15
  IC50: 1.06 µM
  TGI: 4.32 µM
Hs-578T
  IC50: 1.34 µM
  TGI: 7.74 µM
UO-31
  IC50: 2.1 µM
  TGI: 10.8 µM
DU-145
  IC50: 4.8 µM
  TGI: 11.9 µM
OVCAR-8
  IC50: 3.88 µM
  TGI: 10 µM
MCF7
  IC50: 2.73 µM
  TGI: 9.39 µM
